Calls of active or inactive are those of the source. The rule behind the calls is not given here.
What was measured:
Plasmodium berghei [1] = test: Antimalarial activity against Plasmodium berghei infected in mouse assessed as host survival at 11.1 mg/kg, po dosed once daily on days 0, 1, and 2 days post infection measured on day 28 post infection relative to untreated control; type: functional, organism-based
Plasmodium berghei [2] = test: Antimalarial activity against Plasmodium berghei infected in mouse assessed as mean survival time at 11.1 mg/kg, po dosed once daily on days 0, 1, and 2 days post infection measured on day 28 post infection (reference value: 13.2 days); type: functional
Plasmodium berghei [3] = test: Antimalarial activity against Plasmodium berghei infected in mouse assessed as host survival at 33.3 mg/kg, po dosed once daily on days 0, 1, and 2 days post infection measured on day 28 post infection relative to untreated control; type: functional, organism-based
Plasmodium berghei [4] = test: Antimalarial activity against Plasmodium berghei infected in mouse assessed as suppression in parasitemia at 33.3 mg/kg, po dosed once daily on days 0, 1, and 2 days post infection measured on day 7 post infection relative to untreated control; type: functional
Plasmodium berghei [5] = test: Antimalarial activity against Plasmodium berghei infected in mouse assessed as suppression in parasitemia at 11.1 mg/kg, po dosed once daily on days 0, 1, and 2 days post infection measured on day 5 post infection relative to untreated control; type: functional
Plasmodium berghei [6] = test: Antimalarial activity against Plasmodium berghei infected in mouse assessed as suppression in parasitemia at 11.1 mg/kg, po dosed once daily on days 0, 1, and 2 days post infection measured on day 7 post infection relative to untreated control; type: functional
Plasmodium berghei [7] = test: Antimalarial activity against Plasmodium berghei infected in mouse assessed as suppression in parasitemia at 33.3 mg/kg, po dosed once daily on days 0, 1, and 2 days post infection measured on day 5 post infection relative to untreated control; type: functional
Plasmodium berghei [8] = test: Antimalarial activity against Plasmodium berghei infected in mouse assessed as mean survival time at 33.3 mg/kg, po dosed once daily on days 0, 1, and 2 days post infection measured on day 28 post infection (reference value: 13.2 days); type: functional
Plasmodium berghei [9] = test: Antimalarial activity against Plasmodium berghei infected in mouse assessed as parasitemia cure at 11.1 mg/kg, po dosed once daily on days 0, 1, and 2 days post infection measured on day 28 post infection; type: functional, organism-based
Plasmodium berghei [10] = test: Antimalarial activity against Plasmodium berghei infected in mouse assessed as suppression in parasitemia at 33.3 mg/kg, ip dosed once daily on days 0, 1, and 2 days post infection measured on day 7 post infection relative to untreated control; type: functional
[11] = Half life human liver microsomes in the presence of NADPH; type: ADME, Microsome
Heme [12] = test: Binding affinity to monomeric heme assessed as decrease in the Soret band at pH 7.4 by spectrophotometric titration analysis
Plasmodium falciparum [13] = test: microbe, parasite or virus in culture; settings: Dd2, 48 h
Description: Antiplasmodial activity against chloroquine-resistant Plasmodium falciparum Dd2 incubated for 48 hrs by parasite lactate dehydrogenase assay

Plasmodium berghei [14] = test: Antimalarial activity against Plasmodium berghei infected in mouse assessed as suppression in parasitemia at 11.1 mg/kg, ip dosed once daily on days 0, 1, and 2 days post infection measured on day 7 post infection relative to untreated control; type: functional
Plasmodium falciparum [15] = test: microbe, parasite or virus in culture; settings: NF54, 48 h
Description: Antiplasmodial activity against chloroquine-sensitive Plasmodium falciparum NF54 incubated for 48 hrs by parasite lactate dehydrogenase assay

Plasmodium berghei [16] = test: Antimalarial activity against Plasmodium berghei infected in mouse assessed as suppression in parasitemia at 11.1 mg/kg, ip dosed once daily on days 0, 1, and 2 days post infection measured on day 5 post infection relative to untreated control; type: functional
[17] = Intrinsic clearance human liver microsomes in the presence of NADPH; type: ADME, Microsome; settings: read-out: CLH
Heme [18] = test: Binding affinity to monomeric heme assessed as mole fraction for 1:1 binding stoichiometry with monomeric heme at pH 7.4 by spectrophotometric titration analysis
Plasmodium berghei [19] = test: Antimalarial activity against Plasmodium berghei infected in mouse assessed as parasitemia cure at 11.1 mg/kg, ip dosed once daily on days 0, 1, and 2 days post infection measured on day 28 post infection; type: functional, organism-based
Plasmodium berghei [20] = test: Antimalarial activity against Plasmodium berghei infected in mouse assessed as host survival at 33.3 mg/kg, ip dosed once daily on days 0, 1, and 2 days post infection measured on day 28 post infection relative to untreated control; type: functional, organism-based
Plasmodium berghei [21] = test: Antimalarial activity against Plasmodium berghei infected in mouse assessed as mean survival time at 33.3 mg/kg, ip dosed once daily on days 0, 1, and 2 days post infection measured on day 28 post infection (reference value: 13.2 days); type: functional
Heme [22] = test: Binding affinity to monomeric heme assessed as mole fraction for 1:1 binding stoichiometry with monomeric heme at pH 5.6 by spectrophotometric titration analysis
Plasmodium berghei [23] = test: Antimalarial activity against Plasmodium berghei infected in mouse assessed as mean survival time at 11.1 mg/kg, ip dosed once daily on days 0, 1, and 2 days post infection measured on day 28 post infection (reference value: 13.2 days); type: functional
Plasmodium berghei [24] = test: Antimalarial activity against Plasmodium berghei infected in mouse assessed as suppression in parasitemia at 33.3 mg/kg, ip dosed once daily on days 0, 1, and 2 days post infection measured on day 5 post infection relative to untreated control; type: functional
Heme [25] = test: Binding affinity to monomeric heme assessed as decrease in the Soret band at pH 5.6 by spectrophotometric titration analysis
in vitro [26] = settings: hamster, CHO cells versus Plasmodium falciparum Dd2
Description: Selectivity index, ratio of IC50 for CHO cells to IC50 for antiplasmodial activity against chloroquine-resistant Plasmodium falciparum Dd2

CHO = test: Cytotoxicity in CHO cells assessed as reduction in cell viability; type: cell-based; settings: Cricetulus griseus
in vitro [27] = settings: hamster, CHO cells versus Plasmodium falciparum NF54
Description: Selectivity index, ratio of IC50 for CHO cells to IC50 for antiplasmodial activity against chloroquine-sensitive Plasmodium falciparum NF54

Plasmodium berghei [28] = test: Antimalarial activity against Plasmodium berghei infected in mouse assessed as parasitemia cure at 33.3 mg/kg, ip dosed once daily on days 0, 1, and 2 days post infection measured on day 28 post infection; type: functional, organism-based
Plasmodium berghei [29] = test: Antimalarial activity against Plasmodium berghei infected in mouse assessed as host survival at 11.1 mg/kg, ip dosed once daily on days 0, 1, and 2 days post infection measured on day 28 post infection relative to untreated control; type: functional, organism-based
Plasmodium falciparum [30] = test: Potency index, ratio of IC50 for chloroquine to IC50 for test compound for antiplasmodial activity against chloroquine-resistant Plasmodium falciparum Dd2 incubated for 48 hrs by parasite lactate dehydrogenase assay; type: functional
Plasmodium falciparum [31] = test: Potency index, ratio of IC50 for artemisinin to IC50 for test compound for antiplasmodial activity against chloroquine-resistant Plasmodium falciparum Dd2 incubated for 48 hrs by parasite lactate dehydrogenase assay; type: functional
Plasmodium berghei [32] = test: Antimalarial activity against Plasmodium berghei infected in mouse assessed as parasitemia cure at 33.3 mg/kg, po dosed once daily on days 0, 1, and 2 days post infection measured on day 28 post infection; type: functional, organism-based

SMILES	IC50 (Plasmodium falciparum [13])	IC50 (Plasmodium falciparum [15])	selectivity ratio (in vitro [26])	IC50 (CHO)	selectivity ratio (in vitro [27])	other results
CCN(CC)CCCC(C)Nc1ccnc2cc(Cl)ccc12 (stereo unspecified) [CHLOROQUINE]						Activity (Plasmodium berghei [1]): Active; MST (Plasmodium berghei [2]): 28 days; Activity (Plasmodium berghei [3]): Active; Activity (Plasmodium berghei [4]): 100%; Activity (Plasmodium berghei [5]): 100%; Activity (Plasmodium berghei [6]): 99.2%; Activity (Plasmodium berghei [7]): 100%; MST (Plasmodium berghei [8]): 28 days; Activity (Plasmodium berghei [9]): inactive
Cc1cc(NCc2cc(Nc3ccnc4cc(Cl)ccc34)ccc2F)nc(N2CCN(C)CC2)n1	5.24 nM	12.5 nM				Activity (Plasmodium berghei [10]): 100%; half-life [11]: 16.7 min; Activity (Heme [12]): Active; Activity (Plasmodium berghei [14]): 92.9%; Activity (Plasmodium berghei [16]): 91.9%; microsomal CLint [17]: 82.8 µL/min/mg; Activity (mole fraction) (Heme [18]): 0.5; Activity (Plasmodium berghei [19]): inactive; Activity (Plasmodium berghei [20]): Active; MST (Plasmodium berghei [21]): 28 days; Activity (mole fraction) (Heme [22]): 0.5; MST (Plasmodium berghei [23]): 19.8 days; Activity (Plasmodium berghei [24]): 100%; Activity (Heme [25]): Active
CCN1CCN(c2cc(C)nc(NCc3cc(Nc4ccnc5cc(Cl)ccc45)ccc3F)n2)CC1	23.4 nM	28.9 nM	3430	80300 nM	2780	
Cc1cc(NCc2cc(Nc3ccnc4cc(Cl)ccc34)ccc2F)nc(N2CCOCC2)n1	33.3 nM	26.7 nM	437	14600 nM	544	
Cc1cc(NCc2cc(Nc3ccnc4cc(Cl)ccc34)ccc2F)nc(N2CCCCCC2)n1	27.2 nM	16.9 nM				
Cc1cc(Cl)nc(NCc2cc(Nc3ccnc4cc(Cl)ccc34)ccc2F)n1	297 nM	231 nM				
CCN1CCN(c2nc(C)cc(NCc3cc(Nc4ccnc5cc(Cl)ccc45)ccc3F)n2)CC1	7.63 nM	11.2 nM				
Cc1cc(N2CCSCC2)nc(NCc2cc(Nc3ccnc4cc(Cl)ccc34)ccc2F)n1	16 nM	7.47 nM	169	2710 nM	362	
Cc1cc(N2CCN(C)CC2)nc(NCc2cc(Nc3ccnc4cc(Cl)ccc34)ccc2F)n1	18.4 nM	15.3 nM	3160	58200 nM	3800	
Cc1cc(NCc2cc(Nc3ccnc4cc(Cl)ccc34)ccc2F)nc(N2CCSCC2)n1	33.1 nM	22.8 nM	459	15200 nM	664	
Cc1cc(N2CCN(c3ccccc3)CC2)nc(NCc2cc(Nc3ccnc4cc(Cl)ccc34)ccc2F)n1	62.2 nM	69.8 nM	282	17500 nM	251	
N#Cc1cc(Nc2ccnc3cc(Cl)ccc23)ccc1F	3200 nM	> 3360 nM				
NCc1cc(Nc2ccnc3cc(Cl)ccc23)ccc1F	58.7 nM	46.1 nM	533	31300 nM	680	
Cc1cc(NCc2cc(Nc3ccnc4cc(Cl)ccc34)ccc2F)nc(N2CCN(c3ccccc3)CC2)n1	31.3 nM	17.7 nM	555	17400 nM	981	
Cc1cc(N2CCCCCC2)nc(NCc2cc(Nc3ccnc4cc(Cl)ccc34)ccc2F)n1	67.5 nM	148 nM				
Cc1cc(N2CCOCC2)nc(NCc2cc(Nc3ccnc4cc(Cl)ccc34)ccc2F)n1	17.9 nM	12.1 nM	256	4590 nM	380	
Cc1cc(N2CCCCC2)nc(NCc2cc(Nc3ccnc4cc(Cl)ccc34)ccc2F)n1	4.69 nM	13.4 nM	680	3180 nM	237	Activity (Plasmodium berghei [10]): 100%; Activity (Plasmodium berghei [28]): Active; Activity (Plasmodium berghei [14]): 100%; Activity (Plasmodium berghei [16]): 100%; Activity (Plasmodium berghei [19]): inactive; Activity (Plasmodium berghei [20]): Active; Activity (Plasmodium berghei [29]): Active; MST (Plasmodium berghei [21]): 28 days; Ratio IC50 (Plasmodium falciparum [30]): 47.3; MST (Plasmodium berghei [23]): 28 days; Activity (Plasmodium berghei [24]): 100%; Ratio IC50 (Plasmodium falciparum [31]): 2.8
CCN(CC)Cc1cc(Nc2ccnc3cc(Cl)ccc23)ccc1O [AMODIAQUINE]						Activity (Plasmodium berghei [1]): Active; MST (Plasmodium berghei [2]): 28 days; half-life [11]: 5.4 min; microsomal CLint [17]: 431 µL/min/mg; Activity (Plasmodium berghei [3]): Active; Activity (Plasmodium berghei [4]): 100%; Activity (Plasmodium berghei [32]): Active; Activity (Plasmodium berghei [5]): 100%; Activity (Plasmodium berghei [6]): 100%; Activity (Plasmodium berghei [7]): 100%; MST (Plasmodium berghei [8]): 28 days
C[C@H]1[C@H](OC(=O)CCC(=O)O)O[C@@H]2O[C@@]3(C)CC[C@H]4[C@H](C)CC[C@@H]1[C@@]24OO3 [ARTESUNATE]	13 nM	10 nM				
Cc1cc(NCc2cc(Nc3ccnc4cc(Cl)ccc34)ccc2F)nc(Cl)n1	214 nM	183 nM				
Cc1cc(NCc2cc(Nc3ccnc4cc(Cl)ccc34)ccc2F)nc(N2CCCC2)n1	8.23 nM	12.4 nM	462	3800 nM	306	
Cc1cc(N2CCCC2)nc(NCc2cc(Nc3ccnc4cc(Cl)ccc34)ccc2F)n1	74.9 nM	89 nM				
Cc1cc(NCc2cc(Nc3ccnc4cc(Cl)ccc34)ccc2F)nc(N2CCCCC2)n1	17.2 nM	13.8 nM				
